The values below come from paper PMC9447362.

The test system of the test is P4 G4. The experiment in a line: In vitro translation (IVT) assays. The format is biochemical, SARS-CoV-2.

Read-outs that look alike come from different tables or passages of the source.

As to `C[n+]1ccc(-c2c3nc(c(-c4cc[n+](C)cc4)c4ccc([nH]4)c(-c4cc[n+](C)cc4)c4nc(c(-c5cc[n+](C)cc5)c5ccc2[nH]5)C=C4)C=C3)cc1` [TMPyP4, 5,10,15,20-tetrakis-(N-methyl-4-pyridyl)porphine], the “IVT of P4-Mut” value was “not for P4-Mut”. For `NCCOc1cc(C(=O)Nc2cc(OCCN3CCCC3)c3ccccc3n2)nc(C(=O)Nc2cc(OCCN3CCCC3)c3ccccc3n2)c1` [PDP], where the note is “P4-Mut (G/A mutations)”, the “IVT of P4-Mut” value was “not for P4-Mut”.
